{
  "source": "paper PMC8983459",
  "about": "(Molecular cancer therapeutics, 2022)",
  "key": {"22Rv1 tumors": {"system": "22Rv1 tumors", "settings": "cited from earlier work"}, "AR nuclear localization": {"system": "AR nuclear localization", "settings": "cited from earlier work"}, "AR": {"system": "AR", "experiment": "Western blot with nucleocytoplasmic fractionation, AR level", "assay_type": "cell-based, human", "settings": "10 nM, 20 h, C4-2, LN95, and 22Rv1"}, "[1]": {"system": "PSA expression in C4-2 cells (AR activity)", "experiment": "PSA ELISA of conditioned medium, C4-2 cells", "assay_type": "cell-based, human", "settings": "C4-2, 48 h"}, "PC-3 cells": {"system": "PC-3 cells", "experiment": "Cell proliferation assay, PC-3", "assay_type": "cell-based, human", "settings": "PC-3, 10 μM, repeat experiment (Supplemental Fig. 2)"}, "[2]": {"system": "PSA expression in LN95 cells (AR activity)", "experiment": "PSA ELISA of conditioned medium, LN95 cells", "assay_type": "cell-based, human"}, "[3]": {"system": "PSA expression in 22Rv1 cells (AR activity)", "experiment": "PSA ELISA of conditioned medium, 22Rv1 cells", "assay_type": "cell-based, human"}, "DU145 cells": {"system": "DU145 cells", "experiment": "Cell proliferation assay, DU145", "assay_type": "cell-based, human", "settings": "DU145, 10 μM, repeat experiment (Supplemental Fig. 2)"}, "22Rv1 xenograft tumor": {"system": "22Rv1 xenograft tumor", "experiment": "22Rv1 xenograft tumor study in castrated mice", "settings": "10 mg/kg i.p. every day; (+)-JJ-74-138 compared to enzalutamide p < 0.05"}, "[4]": {"settings": "DHT 0-1000 nM with 10 μM (+)-JJ-74-138 or 1 or 10 μM enzalutamide"}, "[5]": {"settings": "LN95, 48 h, DHT 0-1000 nM with 10 μM compound"}, "[6]": {"settings": "22Rv1, 48 h, DHT 0-1000 nM with 10 μM compound"}},
  "data": [
    {"smiles": "CC(C)(c1ccc(OCC(O)CO)cc1)c1ccc(OCC(O)CCl)cc1", "note": "(stereo not drawn) [EPI-001]", "values": [
      {"measurement": "sensitivity of 22Rv1 tumors", "setting": "22Rv1 tumors", "result": "resistant"}
    ]},
    {"smiles": "O=C(CSCc1cnoc1)N1CCN(c2ccccc2)CC1", "note": "[IMTPPE, 2-[(isoxazol-4-ylmethyl)thio]-1-(4-phenylpiperazin-1-yl)ethanone]", "values": [
      {"measurement": "androgen-independent AR nuclear localization", "setting": "AR nuclear localization", "result": "inhibited androgen-independent AR nuclear localization"}
    ]},
    {"smiles": "C[C@]1(O)CC[C@H]2[C@@H]3CCC4=CC(=O)CCC4=C3C=C[C@@]21C", "note": "[R1881]", "values": [
      {"measurement": "amount of total AR and nuclear AR level", "setting": "AR", "result": "increased the amount of total AR, particularly the nuclear AR level"}
    ]},
    {"smiles": "CNC(=O)c1ccc(N2C(=S)N(c3ccc(C#N)c(C(F)(F)F)c3)C(=O)C2(C)C)cc1F", "note": "[enzalutamide]", "values": [
      {"measurement": "increase of EC50 of DHT induction of PSA", "setting": "[1]; [4]", "result": "~ 10 fold"},
      {"measurement": "maximal PSA induction by high DHT dosages", "setting": "[1]; [4]", "result": "alleviated by high doses of DHT"},
      {"measurement": "inhibition at 10 µM", "setting": "[1]; Homo sapiens, read-out: inhibition of PSA levels", "result": "~70", "unit": "%"},
      {"measurement": "cell growth", "setting": "PC-3 cells", "result": "minimal inhibitory effect"},
      {"measurement": "inhibition at 10 µM", "setting": "[2]; Homo sapiens, 48 h, read-out: inhibition of PSA levels", "result": "~20", "unit": "%"},
      {"measurement": "DHT-stimulated PSA expression", "setting": "[2]; LN95, 10 μM, with DHT (Fig. 3A)", "result": "effectively inhibit DHT-stimulated PSA expression"},
      {"measurement": "increase of EC50 of DHT induction of PSA", "setting": "[2]; [5]", "result": "~ 10 fold"},
      {"measurement": "maximal PSA induction by high DHT dosages", "setting": "[2]; [5]", "result": "alleviated by high doses of DHT"},
      {"measurement": "DHT-stimulated PSA expression", "setting": "[3]; 22Rv1, 10 μM, with DHT (Fig. 3A)", "result": "effectively inhibit DHT-stimulated PSA expression"},
      {"measurement": "increase of EC50 of DHT induction of PSA", "setting": "[3]; [6]", "result": "~ 10 fold"},
      {"measurement": "maximal PSA induction by high DHT dosages", "setting": "[3]; [6]", "result": "alleviated by high doses of DHT"},
      {"measurement": "cell growth", "setting": "DU145 cells", "result": "minimal inhibitory effect"},
      {"measurement": "survival (Kaplan-Meier, ad hoc analysis)", "setting": "22Rv1 xenograft tumor", "result": "did not differ from the vehicle control"}
    ]},
    {"smiles": "CC/C(=C(\\c1ccccc1)c1ccc(OCCN(C)C)cc1)c1ccccc1", "note": "[tamoxifen]", "values": [
      {"measurement": "PSA expression", "setting": "[2]; LN95 cells (Supplemental Fig. 3)", "result": "did not affect PSA expression"}
    ]}
  ]
}
